Values quoted from earlier work, collected in patent US20080038252A1, “Histamine-Containing Composition for the Treatment of Allergic Diseases” (priority 2005, published 2008).

System: allergy animal model
Conditions: same amount as in the complex, administered alone to the allergy animal model (Yoshii)

For NCCc1c[nH]cn1 [histamine], the anti-inflammatory effect is given as “not produced”.
